For the experiment, the system named is selected typical species of contaminants. Nature of the experiment: Substitution of conventional biocides with NBDA in products, LuminUltra test against controls. The experiment is classed as cell-based. The text has this:
A test sample (T): In a known recipe for a product comprising one or more conventional biocide(s), said biocide(s) is replaced with NBDA (or another tert, amine according to the present invention).
A control sample (C): Product comprising one or more conventional biocide(s) produced following an established recipe.
A negative control sample (N): A further negative control may be provided by removing said conventional biocide(s) from the recipe, without addition of NBDA (or other biocides). Provision and test of the N-sample can be optional.
Samples, such as test-, control- and/or negative control samples are provided according to Example 3. To assess the effect of the biocide(s), microbial contamination is measured, such as according to Example 6, or other conventional methods known in the art.
In short, samples are exposed to microbial contamination (microbial stress test) e.g. by opening a lid and closing it for a defined period of time, or other operations, mimicking a conventional user situation. Alternatively, samples can be inoculated with defined quantities of microorganisms, such as one or more indicator microorganism.
The samples can be divided into different aliquots, and incubated for selected periods at one or more relevant temperatures, such as e.g. one or more of 4° C., room temperature (RT, usually 20° C., 22° C., or 25° C.), 30° C., 32° C., 37° C., 40° C., and/or 60° C.), simulating e.g. appropriate storage, processing and usage conditions.
ATP, such as intracellular ATP is measured using a commercially available system, such as provided by LumiUltra®, in particular a method using luminase (Aqua Tools, see details below).
In short, a buffering solution and Luminase enzyme are mixed. After daily ATP standard calibration, an aliquot, such as 1 ml of sample is transferred to an 1 ml extraction tube. After dilution in UltraLute resin, the total ATP (content can be established in the luminescence measuring device. 2) 1 ml sample is dissolved in LumiSolve stabilizing agent. […] For further details, see e.g. Aqua Tools (78300 Poissy, France) Quick reference guide QuenchGone21™ Speciality Test Kit QG21S-50/QG21St-100 2G.

Molecules are shown by their SMILES.

This is an account of results in US20250311722A1, “IMPROVED BIOCIDE” (Purgos ApS, priority 2022, published 2025).

On to `CCCCN(CCO)CCO` [NBDA, N-butyldiethanolamine], for which the biocidal protection result (SBR precoat composition for carpets, MIT/BIT substituted with 0.5% NBDA) is recorded as “same performance as the origin”. The biocidal effect entry is “comparable and better than the normal biocide package” (Styrene-Butadiene-Rubber (SBR)-emulsion, MIT and/or BIT replaced, 32° C.); “comparable or even surpassing benzalkonium chloride in function” (algae removing compound, benzalkonium chloride replaced with 1-5%, 32° C.); “comparable to benzalkonium chloride” (circulating heat-transfer systems, benzalkonium chloride replaced with 1-5%, 32° C.); “comparable and better than the normal biocide package” (combination dispersions, emulsions, suspensions, 32° C.); “comparable to benzalkonium chloride” (disinfection compound for pipes, benzalkonium chloride replaced with 1-5%, 32° C.); “comparable or even better than the normal biocide package” (hand cleanser, sodiumbenzoate, MIT and BIT replaced, 32° C.). The biocidal effect result is “comparable to or even surpassing the conventional biocide” (liquid dishwashing compound, MIT/BIT replaced with 0.01-1%, 32° C.); “comparable or even surpassing benzalkonium chloride in function” (liquid disinfection compound, benzalkonium chloride replaced with 1-5%, 32° C.); “comparable or even better than the normal biocide package” (moisturizing crème, benzoate and commercial biocides replaced, 32° C.); “comparable or even better than the normal biocide package” (soap, sodiumbenzoate, MIT and BIT replaced, 32° C.); “comparable and better than the normal biocide package” (stabilized suspension, MIT and BIT replaced, 32° C.); “comparable or even better than chlorine based traditional solutions” (swimming pool water, chlorine compounds replaced, 32° C.). Moreover, the biocidal effect result is “comparable or even better than benzoate” (toothpaste, benzoate (e.g. 0.5%) replaced with similar concentration); “comparable or even surpassing both benzalkonium chloride and glutaraldehyde in function” (veterinary disinfection compound, benzalkonium chloride and/or glutaraldehyde replaced with 1-5%, 32° C.); “comparable or surpassing benzalkonium chloride” (waterborne cooling compound, benzalkonium chloride replaced with 1-5%, 32° C.); “comparable to benzalkonium chloride” (watersystems for toilets, washing facilities, benzalkonium chloride replaced with 1-5%, 32° C.). Moreover, the preservation effect result (food, preservatives substituted with comparable amounts of NBDA) is “suitable preservation effect(s) as the beforementioned preservative(s)”.
